The results in this text go back to patent publication US9682141B2, “Combination of kinase inhibitors and uses thereof” (INTELLIKINE LLC, priority 2011, dated 2017).

What all share (type): biochemical
One assay concerns the target PI3K β (Homo sapiens (Human), UniProt P42338). The assay is described as follows: PI 3-Kinase (human) HTRF assay, p110β/p85α.
The target of a further assay is mTORC (Homo sapiens (Human), UniProt P42345). Description: mTOR inhibition assay (radiometric or LanthaScreen TR-FRET).
A further assay has as its target PI3K γ (Homo sapiens (Human), UniProt P48736). Description: PI 3-Kinase (human) HTRF assay, p110γ.
Another assay addresses PI3K α (Homo sapiens (Human), UniProt P42336). The assay is described as follows: PI 3-Kinase (human) HTRF assay, p110α/p85α. In general terms: TR-FRET usually uses a lanthanide donor and a delayed reading to cut background.
Assay [1] in a line: PI 3-Kinase (human) HTRF assay, p110δ/p85α. The following applies: read-out: PI3K γ IC50.

As a reminder, the IC50 is the concentration that inhibits the measured activity by half.

Like-named read-outs stand apart in the source and are kept apart here. A value given as a limit tells only on which side of the number the result lay.

Sequence of PI3K α (P42336 whole entry): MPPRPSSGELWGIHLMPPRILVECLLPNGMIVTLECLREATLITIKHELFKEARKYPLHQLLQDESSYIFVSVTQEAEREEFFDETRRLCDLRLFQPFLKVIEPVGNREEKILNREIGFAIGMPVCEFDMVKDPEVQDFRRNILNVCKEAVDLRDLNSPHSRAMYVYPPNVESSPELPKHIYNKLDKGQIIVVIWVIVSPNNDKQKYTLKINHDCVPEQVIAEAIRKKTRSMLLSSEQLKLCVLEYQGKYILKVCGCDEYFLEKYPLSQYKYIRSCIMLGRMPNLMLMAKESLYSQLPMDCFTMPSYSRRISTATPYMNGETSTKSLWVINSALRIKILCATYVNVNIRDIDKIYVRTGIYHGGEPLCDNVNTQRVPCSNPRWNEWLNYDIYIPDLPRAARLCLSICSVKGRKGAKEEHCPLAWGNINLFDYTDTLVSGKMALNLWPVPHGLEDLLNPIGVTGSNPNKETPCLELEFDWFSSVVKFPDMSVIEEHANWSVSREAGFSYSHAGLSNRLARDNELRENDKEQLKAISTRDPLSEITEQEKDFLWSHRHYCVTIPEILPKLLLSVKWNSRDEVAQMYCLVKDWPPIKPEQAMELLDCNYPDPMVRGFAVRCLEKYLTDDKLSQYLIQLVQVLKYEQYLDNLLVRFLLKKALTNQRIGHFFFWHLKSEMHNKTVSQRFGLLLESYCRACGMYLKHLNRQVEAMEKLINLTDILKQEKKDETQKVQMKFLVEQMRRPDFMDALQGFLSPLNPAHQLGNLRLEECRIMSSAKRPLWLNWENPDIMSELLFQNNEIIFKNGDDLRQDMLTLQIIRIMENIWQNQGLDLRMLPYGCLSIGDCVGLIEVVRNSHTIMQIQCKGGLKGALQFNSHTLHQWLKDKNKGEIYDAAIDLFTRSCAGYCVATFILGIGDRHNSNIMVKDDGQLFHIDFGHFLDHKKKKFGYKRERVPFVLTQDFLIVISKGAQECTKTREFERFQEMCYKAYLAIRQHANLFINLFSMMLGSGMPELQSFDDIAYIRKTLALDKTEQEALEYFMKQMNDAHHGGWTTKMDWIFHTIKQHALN
Sequence of PI3K α (P27986 whole entry partner): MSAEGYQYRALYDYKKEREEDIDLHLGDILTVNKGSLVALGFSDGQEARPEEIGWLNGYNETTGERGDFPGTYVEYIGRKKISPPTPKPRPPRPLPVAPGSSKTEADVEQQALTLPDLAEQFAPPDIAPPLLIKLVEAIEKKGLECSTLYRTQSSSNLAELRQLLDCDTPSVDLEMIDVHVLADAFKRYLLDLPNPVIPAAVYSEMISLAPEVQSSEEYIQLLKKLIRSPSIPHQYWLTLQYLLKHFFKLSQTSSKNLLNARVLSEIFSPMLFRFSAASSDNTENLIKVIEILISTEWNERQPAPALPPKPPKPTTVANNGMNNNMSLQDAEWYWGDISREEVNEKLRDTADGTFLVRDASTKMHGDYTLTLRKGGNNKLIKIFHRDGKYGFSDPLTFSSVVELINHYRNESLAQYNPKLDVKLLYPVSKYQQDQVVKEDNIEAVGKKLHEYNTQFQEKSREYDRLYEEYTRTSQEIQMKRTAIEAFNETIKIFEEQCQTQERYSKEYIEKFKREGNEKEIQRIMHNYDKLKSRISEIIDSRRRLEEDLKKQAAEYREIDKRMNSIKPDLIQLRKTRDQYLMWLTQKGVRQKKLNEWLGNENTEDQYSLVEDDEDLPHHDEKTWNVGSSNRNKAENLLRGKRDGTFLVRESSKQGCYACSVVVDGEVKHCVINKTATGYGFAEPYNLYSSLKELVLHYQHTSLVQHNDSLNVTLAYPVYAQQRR
Sequence of mTORC (P42345 1360-2549): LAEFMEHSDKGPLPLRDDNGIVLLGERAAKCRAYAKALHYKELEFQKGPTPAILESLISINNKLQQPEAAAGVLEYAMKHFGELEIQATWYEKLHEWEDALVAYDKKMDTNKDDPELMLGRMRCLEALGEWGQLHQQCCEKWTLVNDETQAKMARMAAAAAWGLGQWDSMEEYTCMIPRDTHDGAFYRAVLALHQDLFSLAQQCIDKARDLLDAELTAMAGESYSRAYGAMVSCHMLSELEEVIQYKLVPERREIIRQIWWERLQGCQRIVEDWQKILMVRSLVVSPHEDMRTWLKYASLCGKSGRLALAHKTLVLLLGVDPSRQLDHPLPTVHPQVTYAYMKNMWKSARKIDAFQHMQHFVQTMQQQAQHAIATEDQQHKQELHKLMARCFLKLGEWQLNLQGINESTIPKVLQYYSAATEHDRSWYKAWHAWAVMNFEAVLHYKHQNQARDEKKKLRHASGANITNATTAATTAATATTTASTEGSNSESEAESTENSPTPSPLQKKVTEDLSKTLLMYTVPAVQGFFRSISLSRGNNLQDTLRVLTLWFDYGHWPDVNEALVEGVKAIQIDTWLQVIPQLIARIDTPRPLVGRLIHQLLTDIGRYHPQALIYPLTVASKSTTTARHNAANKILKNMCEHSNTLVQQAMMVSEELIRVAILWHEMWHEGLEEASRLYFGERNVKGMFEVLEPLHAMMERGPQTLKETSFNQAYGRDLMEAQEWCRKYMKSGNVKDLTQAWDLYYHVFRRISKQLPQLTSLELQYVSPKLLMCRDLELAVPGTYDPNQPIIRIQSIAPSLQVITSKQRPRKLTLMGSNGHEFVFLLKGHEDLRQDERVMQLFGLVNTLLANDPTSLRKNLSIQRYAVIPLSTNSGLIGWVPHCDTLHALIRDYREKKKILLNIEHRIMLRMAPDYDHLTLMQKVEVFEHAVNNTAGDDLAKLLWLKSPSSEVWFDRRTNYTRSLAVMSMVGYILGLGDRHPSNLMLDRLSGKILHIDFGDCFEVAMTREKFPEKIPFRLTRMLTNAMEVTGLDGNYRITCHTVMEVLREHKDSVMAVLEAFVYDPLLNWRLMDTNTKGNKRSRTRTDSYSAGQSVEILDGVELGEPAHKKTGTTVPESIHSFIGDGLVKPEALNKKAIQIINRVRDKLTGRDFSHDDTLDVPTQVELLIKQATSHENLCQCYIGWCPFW
Sequence of PI3K β (P42338 whole entry): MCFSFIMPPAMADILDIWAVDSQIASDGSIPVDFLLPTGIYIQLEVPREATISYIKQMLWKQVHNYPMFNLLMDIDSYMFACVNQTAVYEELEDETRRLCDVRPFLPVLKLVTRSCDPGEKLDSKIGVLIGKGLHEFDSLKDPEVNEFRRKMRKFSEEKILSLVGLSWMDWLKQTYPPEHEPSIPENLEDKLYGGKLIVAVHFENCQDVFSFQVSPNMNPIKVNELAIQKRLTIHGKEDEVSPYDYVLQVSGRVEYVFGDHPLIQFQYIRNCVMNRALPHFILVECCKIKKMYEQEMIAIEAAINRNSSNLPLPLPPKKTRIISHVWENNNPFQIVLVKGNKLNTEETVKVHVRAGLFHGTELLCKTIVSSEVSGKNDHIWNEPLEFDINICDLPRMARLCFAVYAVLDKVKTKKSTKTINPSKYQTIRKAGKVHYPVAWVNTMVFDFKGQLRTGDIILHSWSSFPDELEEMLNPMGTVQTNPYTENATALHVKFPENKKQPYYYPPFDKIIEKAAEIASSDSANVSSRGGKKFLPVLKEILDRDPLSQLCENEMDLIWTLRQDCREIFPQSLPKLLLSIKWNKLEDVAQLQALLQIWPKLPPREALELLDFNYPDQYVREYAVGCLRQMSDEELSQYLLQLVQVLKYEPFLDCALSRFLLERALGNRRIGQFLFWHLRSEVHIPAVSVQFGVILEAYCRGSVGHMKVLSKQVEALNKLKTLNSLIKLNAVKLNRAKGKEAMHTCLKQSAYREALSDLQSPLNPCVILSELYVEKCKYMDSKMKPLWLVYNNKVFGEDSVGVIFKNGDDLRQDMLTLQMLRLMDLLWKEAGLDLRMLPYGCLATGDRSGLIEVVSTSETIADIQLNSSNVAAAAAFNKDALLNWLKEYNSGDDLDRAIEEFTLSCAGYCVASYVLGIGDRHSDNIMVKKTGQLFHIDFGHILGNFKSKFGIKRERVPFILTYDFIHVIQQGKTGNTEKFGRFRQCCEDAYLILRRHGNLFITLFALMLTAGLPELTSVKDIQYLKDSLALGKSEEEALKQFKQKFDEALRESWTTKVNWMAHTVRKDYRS
Sequence of PI3K β (P27986 whole entry partner): as the sequence (P27986 whole entry partner) above
Protocol for PI3K β: An exemplary system is PI 3-Kinase (human) HTRF™ Assay from Upstate. […] Briefly, the assay is a time resolved FRET assay that indirectly measures PIP3 product formed by the activity of a PI3-K. The kinase reaction is performed in a microtitre plate (e.g., a 384 well microtitre plate). The total reaction volume is approximately 20 ul per well. In the first step, each well receives 2 ul of test compound in 20% dimethylsulphoxide resulting in a 2% DMSO final concentration. Next, approximately 14.5 ul of a kinase/PIP2 mixture (diluted in 1× reaction buffer) is added per well for a final concentration of 0.25-0.3 ug/ml kinase and 10 μM PIP2. The plate is sealed and incubated for 15 minutes at room temperature. To start the reaction, 3.5 ul of ATP (diluted in 1× reaction buffer) is added per well for a final concentration of 10 μM ATP. The plate is sealed and incubated for 1 hour at room temperature. The reaction is stopped by adding 5 ul of Stop Solution per well and then 5 ul of Detection Mix is added per well. The plate is sealed, incubated for 1 hour at room temperature, and then read on an appropriate plate reader. Data is analyzed and IC50s are generated using GraphPad Prism 5. For PI3K α, β, δ, and γ, the nM concentration of inhibitor to reach IC50 is provided.
Protocol for mTORC: The compounds described herein can be tested against recombinant mTOR (Invitrogen) in an assay containing 50 mM HEPES, pH 7.5, 1 mM EGTA, 10 mM MgCl2, 2.5 mM, 0.01% Tween, 10 μM ATP (2.5 μCi of μ-32P-ATP), and 3 μg/mL BSA. Rat recombinant PHAS-1/4EBP1 (Calbiochem; 2 mg/mL) is used as a substrate. Reactions are terminated by spotting onto nitrocellulose, which is washed with 1M NaCl/1% phosphoric acid (approximately 6 times, 5-10 minutes each). Sheets are dried and the transferred radioactivity quantitated by phosphorimaging.
For instance, one can use Invitrogen's LanthaScreen™ Kinase assay to test the inhibitors of mTOR disclosed herein. This assay is a time resolved FRET platform that measures the phosphorylation of GFP labeled 4EBP1 by mTOR kinase. The kinase reaction is performed in a white 384 well microtitre plate. The total reaction volume is 20 ul per well and the reaction buffer composition is 50 mM HEPES pH7.5, 0.01% Polysorbate 20, 1 mM EGTA, 10 mM MnCl2, and 2 mM DTT. In the first step, each well receives 2 ul of test compound in 20% dimethylsulphoxide resulting in a 2% DMSO final concentration. Next, 8 ul of mTOR diluted in reaction buffer is added per well for a 60 ng/ml final concentration. To start the reaction, 10 ul of an ATP/GFP-4EBP1 mixture (diluted in reaction buffer) is added per well for a final concentration of 10 μM ATP and 0.5 μM GFP-4EBP1. The plate is sealed and incubated for 1 hour at room temperature. […] The plate is sealed, incubated for 1 hour at room temperature, and then read on a plate reader set up for LanthaScreen™ TR-FRET. Data is analyzed and IC50s are generated using GraphPad Prism 5.

As to `Nc1nc2cc(-c3cccc4[nH]nc(N)c34)ccc2o1`, the 50% inhibitory concentration (IC50) against PI3K β, against mTORC, at PI3K γ (read-out: PI3K δ IC50) and against PI3K α was above 10 µM each time.
In the case of `CC(=O)N1CCN(C2CN(c3cnc4ccc(-c5ccc6oc(N)nc6c5)cc4n3)C2)CC1`, the half-maximal inhibitory concentration (IC50) in assay [1] is below 1 µM; on PI3K β, below 10 µM; against mTORC, above 10 µM; on PI3K γ (read-out: PI3K δ IC50) it was below 1 µM; against PI3K α, below 0.1 µM.
`Cc1nccn1C1CN(c2cnc3ccc(-c4ccc5oc(N)nc5c4)cc3n2)C1`: the half-inhibitory concentration (IC50) in assay [1] is below 10 µM; at PI3K β, below 10 µM; against mTORC, below 10 µM; on PI3K γ (read-out: PI3K δ IC50), below 10 µM; on PI3K α it was below 0.1 µM.
For `Nc1ncnc2ccc(-c3ccc4nccc(-c5ccncc5)c4c3)cc12` [Compound 8], the concentration for half-maximal inhibition (IC50) against PI3K β is above 10 µM; at mTORC, above 10 µM; at PI3K γ (read-out: PI3K γ IC50), below 1 µM; at PI3K α, below 10 µM.
Turning to `Nc1nc2cc(-c3ccc4ncc(N5CC(C(=O)N6CCN(C7CC7)CC6)C5)nc4c3)ccc2o1`, the IC50 in assay [1] is below 1 µM; on PI3K β it was below 10 µM; against mTORC, below 10 µM; at PI3K γ (read-out: PI3K δ IC50), below 1 µM; on PI3K α it was below 0.1 µM.
Consider `Nc1nc2cc(-c3ccc4ncc(N5CC(N6CCNCC6)C5)nc4c3)ccc2o1`, for which the IC50 is below 1 µM in assay [1]; below 1 µM at PI3K β; above 10 µM at mTORC; below 1 µM at PI3K γ (read-out: PI3K δ IC50); below 0.1 µM on PI3K α.
On to `Nc1nc2cc(-c3ccc4ncc(N5CCC(n6ccnc6)CC5)nc4c3)ccc2o1`, for which the half-inhibitory concentration (IC50) in assay [1] is below 1 µM; against PI3K β it was below 1 µM; at mTORC, below 10 µM; at PI3K γ (read-out: PI3K δ IC50), below 1 µM; against PI3K α, below 0.1 µM.
With `Nc1nc2cc(-c3ccc4ncc(N5CC(N6CC[C@H](O)C6)C5)nc4c3)ccc2o1`, the IC50 is below 10 µM in assay [1]; below 1 µM at PI3K β; above 10 µM at mTORC; below 1 µM at PI3K γ (read-out: PI3K δ IC50); below 0.1 µM on PI3K α.
Turning to `CS(=O)(=O)N1CCN(C2CCN(c3cnc4ccc(-c5ccc6oc(N)nc6c5)cc4n3)CC2)CC1`, the IC50 in assay [1] was below 10 µM; against PI3K β, below 10 µM; against mTORC it was below 10 µM; on PI3K γ (read-out: PI3K δ IC50) it was below 1 µM; at PI3K α, below 0.1 µM.
As to `COC(=O)N1CCC(n2ncc3c(N4CCOCC4)nc(-c4ccc5oc(N)nc5c4)nc32)CC1`, the half-maximal inhibitory concentration (IC50) in assay [1] was above 10 µM; at PI3K β, below 10 µM; against mTORC, below 1 µM; at PI3K γ (read-out: PI3K δ IC50), above 10 µM; against PI3K α, below 1 µM.
For the compound `Cc1ccn(C2CN(c3cnc4ccc(-c5ccc6oc(N)nc6c5)cc4n3)C2)n1`, the IC50 in assay [1] was below 10 µM; on PI3K β, below 10 µM; on mTORC it was above 10 µM; at PI3K γ (read-out: PI3K δ IC50), below 10 µM; on PI3K α, below 0.1 µM.
In the case of `Nc1nc2cc(-c3ccc4nc(N)sc4c3)ccc2o1`, the IC50 in assay [1] is below 10 µM; against PI3K β, below 1 µM; against mTORC it was below 10 µM; at PI3K γ (read-out: PI3K δ IC50), below 1 µM; on PI3K α it was below 1 µM.
Take `Nc1nc2cc(-c3nc(N4CCOCC4)c4cnn(C5CCNCC5)c4n3)ccc2o1`: the IC50 was below 10 µM in assay [1]; below 0.1 µM against PI3K β; below 1 µM against mTORC; below 1 µM on PI3K γ (read-out: PI3K δ IC50); below 1 µM at PI3K α.
Regarding `C[C@@H]1CN(c2cnc3ccc(-c4ccc5oc(N)nc5c4)nc3c2)CCN1`, the half-maximal inhibitory concentration (IC50) on PI3K β is below 1 µM; against mTORC, above 10 µM; at PI3K γ (read-out: PI3K γ IC50), below 10 µM; at PI3K α, below 0.1 µM.
On to `Nc1nc2cc(-c3ccc4ncc(N5CC(N6CCN(CCO)CC6)C5)nc4c3)ccc2o1`, for which the IC50 in assay [1] is below 1 µM; on PI3K β, below 10 µM; at mTORC, above 10 µM; at PI3K γ (read-out: PI3K δ IC50) it was below 10 µM; against PI3K α, below 0.1 µM.
For `CC(=O)Nc1ncc(-c2ccc3oc(N)nc3c2)s1`, the half-maximal inhibitory concentration (IC50) was below 10 µM in assay [1]; above 10 µM against PI3K β; below 10 µM at mTORC; below 10 µM at PI3K γ (read-out: PI3K δ IC50); below 10 µM at PI3K α.
With `Nc1nc2cc(-c3ccc4ncc(N5CC(N6CC[C@@H](O)C6)C5)nc4c3)ccc2o1`, the half-inhibitory concentration (IC50) is below 10 µM in assay [1]; below 10 µM at PI3K β; below 1 µM on mTORC; below 10 µM at PI3K γ (read-out: PI3K δ IC50); below 0.1 µM against PI3K α.
Turning to `Nc1nc2cc(-c3ccc4ncc(N5CC(N6CCOCC6)C5)nc4c3)c(F)cc2o1`, the IC50 in assay [1] is below 10 µM; against PI3K β it was below 10 µM; at mTORC, above 10 µM; at PI3K γ (read-out: PI3K δ IC50) it was below 10 µM; on PI3K α it was below 0.1 µM.
With `Nc1nc2cc(-c3ccc4ncc(N5CC(N6CCN(CC7CC7)CC6)C5)nc4c3)ccc2o1`, the IC50 was below 10 µM in assay [1]; below 10 µM against PI3K β; above 10 µM at mTORC; above 10 µM at PI3K γ (read-out: PI3K δ IC50); below 0.1 µM against PI3K α.
Regarding `CS(=O)(=O)N1CCN(C2CN(c3cnc4ccc(-c5ccc6oc(N)nc6c5)cc4n3)C2)CC1`, the IC50 in assay [1] is below 10 µM; against PI3K β it was below 10 µM; at mTORC, above 10 µM; at PI3K γ (read-out: PI3K δ IC50) it was below 10 µM; against PI3K α it was below 0.1 µM.
For the compound `CN1CCN(C2CN(C(=O)c3cnc4ccc(-c5ccc6oc(N)nc6c5)cn34)C2)CC1`, the IC50 in assay [1] was below 10 µM; on PI3K β, above 10 µM; on mTORC, below 10 µM; on PI3K γ (read-out: PI3K δ IC50), above 10 µM; against PI3K α it was below 0.1 µM.
Consider `Nc1nc2cc(-c3ccc4ncc(N5CC(N6CCOCC6)C5)nc4c3)ccc2o1`, for which the IC50 is above 10 µM in assay [1]; above 10 µM at PI3K β; below 1 µM on mTORC; below 10 µM on PI3K γ (read-out: PI3K δ IC50); below 0.1 µM on PI3K α.
On to `Nc1ncc2cc(-c3ccc4nccc(-c5ccncc5)c4c3)ccc2n1` [Compound 9], for which the IC50 is below 10 µM at PI3K β, above 10 µM against mTORC, below 1 µM on PI3K γ (read-out: PI3K γ IC50) and below 1 µM at PI3K α.
Turning to `CN1CCN(C2CN(c3cnc4ccc(-c5ccc6oc(N)nc6c5)cc4n3)C2)CC1=O`, the half-maximal inhibitory concentration (IC50) in assay [1] was below 10 µM; against PI3K β, below 10 µM; against mTORC, above 10 µM; at PI3K γ (read-out: PI3K δ IC50), below 1 µM; against PI3K α, below 0.1 µM.
Turning to `CN1CCN([C@@H]2CCN(c3cnc4ccc(-c5ccc6oc(N)nc6c5)cc4n3)C2)CC1`, the IC50 was below 10 µM in assay [1]; below 1 µM on PI3K β; below 10 µM at mTORC; above 10 µM on PI3K γ (read-out: PI3K δ IC50); below 0.1 µM against PI3K α.
For `Cc1cc2oc(N)nc2cc1-c1ccc2ncc(N3CC(N4CCOCC4)C3)nc2c1`, the IC50 in assay [1] was above 10 µM; against PI3K β, above 10 µM; at mTORC it was above 10 µM; at PI3K γ (read-out: PI3K δ IC50), above 10 µM; against PI3K α, below 10 µM.
As for `Nc1nc2cc(-c3ccc4ncc(N5CC[C@H](O)C5)nc4c3)ccc2o1`, the IC50 was above 10 µM in assay [1]; below 1 µM against PI3K β; below 10 µM at mTORC; below 1 µM at PI3K γ (read-out: PI3K δ IC50); below 0.1 µM against PI3K α.
Consider `CC(C)Oc1nc(-c2ccc3oc(N)nc3c2)cnc1N`, for which the half-maximal inhibitory concentration (IC50) on PI3K β was below 10 µM; at mTORC, below 1 µM; at PI3K γ (read-out: PI3K δ IC50) it was below 10 µM; on PI3K α, below 10 µM.
As to `COc1ncc(-c2ccc3ncc(C(=O)N4CCOCC4)n3c2)cc1NS(=O)(=O)c1ccc(F)cc1F`, the half-inhibitory concentration (IC50) is below 0.1 µM in assay [1]; below 0.1 µM against PI3K β; below 1 µM against mTORC; below 0.1 µM at PI3K γ (read-out: PI3K δ IC50); below 0.1 µM against PI3K α.
As for `CCN(CC)C1CN(c2cnc3ccc(-c4ccc5oc(N)nc5c4)cc3n2)C1`, the IC50 is below 10 µM in assay [1]; below 10 µM on PI3K β; above 10 µM against mTORC; below 1 µM at PI3K γ (read-out: PI3K δ IC50); below 0.1 µM against PI3K α.
For `CC(C)N1CCN(C2CN(c3cnc4ccc(-c5ccc6oc(N)nc6c5)cc4n3)C2)CC1`, the IC50 in assay [1] was below 10 µM; at PI3K β, below 10 µM; against mTORC, above 10 µM; on PI3K γ (read-out: PI3K δ IC50) it was below 10 µM; against PI3K α it was below 0.1 µM.
On to `Nc1nc2cc(-c3ccc4ncc(N5CC(n6cccn6)C5)nc4c3)ccc2o1`, for which the IC50 in assay [1] was above 10 µM; on PI3K β, below 10 µM; at mTORC it was below 1 µM; on PI3K γ (read-out: PI3K δ IC50) it was below 10 µM; at PI3K α, below 0.1 µM.
For `Nc1ncc(-c2ccc3oc(N)nc3c2)cn1`, the IC50 in assay [1] is above 10 µM; against PI3K β, above 10 µM; on mTORC, above 10 µM; on PI3K γ (read-out: PI3K δ IC50), below 10 µM; on PI3K α, above 10 µM.
Consider `CCN1CCN(C2CN(c3cnc4ccc(-c5ccc6oc(N)nc6c5)cc4n3)C2)CC1`, for which the IC50 in assay [1] is below 1 µM; against PI3K β, below 1 µM; against mTORC, above 10 µM; on PI3K γ (read-out: PI3K δ IC50), below 10 µM; at PI3K α it was below 0.1 µM.
Regarding `C[C@@H]1CN(C2CN(c3cnc4ccc(-c5ccc6oc(N)nc6c5)nc4n3)C2)CCN1`, the IC50 against PI3K β was above 10 µM; at mTORC, above 10 µM; on PI3K γ (read-out: PI3K γ IC50) it was above 10 µM; against PI3K α it was below 0.1 µM.
Consider `CN1CCN(c2cnc3ccc(-c4ccc5oc(N)nc5c4)cc3n2)CC1`, for which the IC50 at PI3K β was below 0.1 µM; against mTORC, above 10 µM; at PI3K γ (read-out: PI3K γ IC50), below 1 µM; against PI3K α, below 0.1 µM.
As for `Nc1nc2cc(-c3ccc4nc(N)oc4c3)ccc2o1`, the concentration for half-maximal inhibition (IC50) in assay [1] was below 1 µM; on mTORC it was below 10 µM; at PI3K γ (read-out: PI3K δ IC50) it was below 0.1 µM; on PI3K α, below 1 µM.
On to `Nc1nc2cc(-c3ccc4oc(N)nc4c3)ccc2o1`, for which the IC50 in assay [1] was below 10 µM; against mTORC it was below 10 µM; on PI3K γ (read-out: PI3K δ IC50), below 0.1 µM; at PI3K α it was below 1 µM.
